Patent US12582617B2, “Methods for treating cancer” (RADIUS PHARMACEUTICALS, INC., priority 2015, dated 2026)
Structures can show the parent of a compound that is named as a salt.

Experiments:
ER = target: T1, ER (Homo sapiens, UniProt P03372); assay: ER degradation and ER signaling in MCF-7 cell line in vitro; format: cell-based; conditions: MCF-7 cell lines; 0.001-1 μM
T1 construct: from tissue; host or cells: uterus (also pituitary, bone and muscle as non-target tissue) of living human subjects
T1 sequence (P03372 1-595): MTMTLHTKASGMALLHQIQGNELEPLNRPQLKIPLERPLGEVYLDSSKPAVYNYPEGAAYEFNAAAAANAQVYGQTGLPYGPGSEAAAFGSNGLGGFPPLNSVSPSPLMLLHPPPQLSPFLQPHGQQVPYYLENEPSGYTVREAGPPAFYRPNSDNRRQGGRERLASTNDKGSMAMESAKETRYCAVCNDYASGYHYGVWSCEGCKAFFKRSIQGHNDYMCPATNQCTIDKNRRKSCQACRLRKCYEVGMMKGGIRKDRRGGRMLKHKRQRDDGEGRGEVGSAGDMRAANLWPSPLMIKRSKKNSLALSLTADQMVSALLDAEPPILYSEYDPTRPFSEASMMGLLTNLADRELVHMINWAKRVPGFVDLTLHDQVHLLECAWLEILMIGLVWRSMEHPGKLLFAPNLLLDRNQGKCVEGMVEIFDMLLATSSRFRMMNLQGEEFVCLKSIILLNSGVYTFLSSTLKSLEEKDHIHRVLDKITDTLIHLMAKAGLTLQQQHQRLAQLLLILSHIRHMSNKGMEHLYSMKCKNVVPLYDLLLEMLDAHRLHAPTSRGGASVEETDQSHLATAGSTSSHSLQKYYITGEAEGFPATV
Procedure: MCF-7 cells (human mammary metastatic adenocarcinoma) were purchased from American Type Culture Collection (Rockville, MD) and were routinely maintained in phenol red-free minimal essential medium (MEM) containing 2 mM L-glutamine and Earle's BSS, 0.1 mM non-essential amino acids and 1 mM sodium pyruvate supplemented with 0.01 mg/ml bovine insulin and 10% fetal bovine serum (Invitrogen, Carlsbad, CA), at 5% CO2.
Cells were harvested and protein expression was analyzed using standard practice. Tumors were harvested at the indicated time points after the last day of dosing, homogenized in RIPA buffer with protease and phosphatase inhibitors using a Tissuelyser (Qiagen). Equal amounts of protein were separated by MW, transferred to nitrocellulose membranes and blotted with the following antibodies using standard practice: • Estrogen receptor (SantaCruz (HC-20); sc-543) • Progesterone receptor (Cell Signaling Technologies; 3153) • Vinculin (Sigma-Aldrich, v9131)
qPCR analyses were performed as follows: Cells were harvested, mRNA was extracted, and equal amounts used for cDNA synthesis and qPCR with primers specific for progesterone receptor, GREB1, and TFF1 (LifeTech). Bands were quantified using 1D Quant software (GE).
Three ER target genes, progesterone receptor (PgR), growth regulation by estrogen in breast cancer 1 (GREB1) and trefoil factor 1 (TFF1), were used as markers.

[1] = system: PDx models with patient derived breast cancer tumor; assay: Tumor growth inhibition (TGI) in patient-derived xenograft (PDx) models, FIG. 1; format: in vivo, athymic nude mice

CCNCCc1ccc(CN(CC)c2cc(OC)ccc2[C@@H]2CCc3cc(O)ccc3C2)cc1 [RAD1901, (6R)-6-(2-(N-(4-(2-(ethylamino)ethyl)benzyl)-N-ethylamino)-4-methoxyphenyl)-5,6,7,8-tetrahydronaphthalen-2-ol dihydrochloride]
ER expression and ER signaling (PGR, GREB1, TFF1) (in words) (ER): complete ER degradation and inhibited ER signaling | tumor growth inhibition (in words) ([1]; PDx models, RAD1901 60 or 90 mg/kg p.o., q.d., 60 days, alone or with palbociclib): efficacious in inhibiting tumor growth | TGI ([1]; RAD1901 single agent treatment, PDx-2, PDx-5, PDx-7, PDx-8, PDx-9 and PDx-10): ≤ 64% | TGI ([1]; RAD1901 single agent treatment, PDx-6 and PDx-11 models): ≥ 65% | TGI ([1]; xenograft models wherein RAD1901 alone achieved a TGI of less than 25%): less than 25%
